According to patent publication US20180369244A1, “BTK Inhibitors to Treat Solid Tumors Through Modulation of the Tumor Microenvironment” (Acerta Pharma B.V., priority 2014, published 2018):
pEC50, pIC50: −log10 of the molar value.

Columns and labels:
CLL = settings: cited from earlier work
NK cells = test: Antibody-dependent NK cell degranulation (CD107a flow cytometry); assay type: cell-based, human; settings: DHL-4 target cells
[1] = system: human platelet-mediated thrombosis; settings: mouse, in vivo
Protocol: Injury to the vessel wall of arterioles ([…] diameter) was performed using a pulsed nitrogen dye laser (440 nm, Photonic Instruments) applied through a 20× water-immersion Olympus objective (LUMPlanF1, 0.5 numerical aperature (NA)) of a Zeiss Axiotech vario microscope. […] The extent of thrombus formation was assessed for 2 minutes after injury and the area (μm^2) of coverage determined (Image IQ, Andor Technology).
The BTK inhibitor-treated human platelets were fluorescently labeled and infused continuously through a catheter inserted into the femoral artery.

Raji cells = test: Rituximab ADCC chromium release assay; assay type: cell-based, human; settings: 1 μM
Text: Cell culture conditions were as follows. […] The HER18 cells were maintained in DEM supplemented with fetal bovine serum, penicillin-streptomycin and. Prior to assay, HER18 cells were harvested using trypsin-EDTA, washed with phosphate-buffered saline (PBS) containing 5% serum and viable cells were counted. For culture of primary target cells, peripheral blood from CLL patients was subject to density centrifugation to obtain peripheral blood mononuclear cells (PBMC). Cell preparations were washed and then subject to positive selection of CD5+CD19^+ CLL cells using magnetic beads (MACS, Miltenyi Biotech). Cell preparations were used fresh after selection. NK cells from CLL patients and healthy volunteers were enriched from peripheral blood collected in sodium citrate anti-coagulant tubes and then subject to density centrifugation. Removal of non NK cells was performed using negative selection by MACS separation. Freshly isolated NK cells were washed three times, enumerated, and then used immediately for ADCC assays.
ADCC assays were performed as follows. Briefly, target cells (Raji or primary CLL) were labeled by incubation at 37° C. with 100 μCi ^51Cr for 4 hours prior to co-culture with NK cells. Cells were washed, enumerated, and then added in triplicate to prepared 96-well plates containing treated NK cells at an effector:target (E:T) ratio of 25:1. […] The effect of NK cell natural cytotoxicity was assessed in wells containing no rituximab. Cultures were incubated at 37° C. for 4 hours, and then centrifuged. Supernatants were harvested and ^51Cr release was measured by liquid scintillation counting. All experiments were performed in triplicate.

B cell receptor = test: Whole blood B cell receptor signalling, CD69 on CD19+ B cells; assay type: cell-based; settings: 2 h incubation, anti-human IgD 18 h
Protocol: Blood from four healthy donors was incubated for 2 hours with the compounds shown over a concentration range, and then stimulated with anti-human IgD [10 μg/mL] for 18 hours. The mean fluorescent intensity (MFI) of CD69 (and CD86, data not shown) on gated CD19+ B cells was measured by flow cytometry. MFI values were normalized so that 100% represents CD69 level in stimulated cells without inhibitor, while 0% represents the unstimulated/no drug condition. […]

CD8+ T cells [2] = test: Cytotoxic T cell (CTL) assay; assay type: cell-based; settings: 500 nM
Protocol: CD8^+ T cells have at least two primary effector functions: (1) produce large amounts of IFN-γ (which activates macrophages), and (2) cytolytic activity. […] The targets were B lymphoblasts from lipopolysaccharide (LPS) treated cultures. The assay was performed by incubating different ratios of effectors:targets for 4 hours.

CD4+ T cells = test: Th17 and Treg development from CD4+ T cells; assay type: cell-based
Protocol: Enriched CD4^+ T cells are plated on 24-well culture dishes that have been precoated 2 hr with 250 μL anti-TCRβ (0.5 μg/mL) plus anti-CD28 (5 μg/mL) at 37° C. in PBS. The cells are then supplemented with media containing BTK inhibitors along with the skewing cytokines as indicated in the following. The Th17 and Treg cultures are grown for 4 days before analysis. The cells are maintained for an additional 3 days with skewing cytokines (Th17; 20 ng/mL IL-6, 0.5 ng/mL TGF-β, 5 μg/mL IL-4, 5 μg/mL IFN-γ and Treg; 0.5 ng/mL TGF-β, 5 μg/mL IL-4, 5 μg/mL IFN-γ) and are supplemented with IL2 as a growth factor.

CD8+ T cells [3] = test: CD8+ T cell viability; assay type: cell-based; settings: 4 days culture
Protocol: Total T cells were plated on anti-TCR and anti-CD28 coated wells in the presence of both BTK inhibitors. Neutral culture conditions were used that will not polarize T cells to a helper lineage. The cells are grown for 4 days and are then stained with anti-CD4, anti-CD8 and LIVE/DEAD reagent to determine if the drugs have selective effects on either the CD4^+ or CD8^+ cells. Statistical significance was calculated using the Mann Whitney T-test. […]

CLL, MCL, NHL patients = settings: monotherapy, dose levels through 840 mg; cited from earlier work
[4] = system: GPVI platelet aggregation; test: GPVI platelet aggregation (convulxin-induced); assay type: cell-based, human
Protocol: GPVI platelet aggregation was measured for Formula (II) and Formula (X) (ibrutinib). Blood was obtained from untreated humans, and platelets were purified from […] by centrifugation. Cells were resuspended to a final concentration of […] in buffer containing 145 mmol/L NaCl, 10 mmol/L HEPES, 0.5 mmol/L Na2HPO4, 5 mmol/L KCl, 2 mmol/L MgCl2, 1 mmol/L CaCl2, and 0.1% glucose, at pH 7.4. Stock solutions of Convulxin (CVX) GPVI were prepared on the day of experimentation and added to platelet suspensions 5 minutes (37° C., 1200 rpm) before the induction of aggregation. Aggregation was assessed with a Chronolog Lumi-Aggregometer (model 540 VS; Chronolog, Havertown, Pa.) and permitted to proceed for 6 minutes after the addition of agonist. The results are reported as maximum percent change in light transmittance from baseline with platelet buffer used as a reference.
In FIG. 23, the results of CVX-induced (250 ng/mL) human platelet aggregation results before and 15 minutes after administration of the BTK inhibitors to 6 healthy individuals are shown.

[5] = Phase 1 portion, relapsed/refractory CLL (n=13)

| Molecule | response rate (CLL; Phase 1, previously treated CLL, monotherapy) | infusion related reactions, Grade 3 (CLL; [5]) | patients with all grade AE (infusion related reactions) (CLL; [5]) | IRR cases developing symptoms of hypotension (CLL; Phase 2 portion) | hypotension cases that were Grade 3 reactions (CLL; Phase 2 portion) | patients who developed IRR (CLL; Phase 2 portion) | reduction of rituximab-stimulated NK cell degranulation (NK cells) | effect on thrombus formation [1] | rituximab ADCC, NK cell activity (Raji cells; FIG. 31) | antibody-dependent lysis of rituximab-coated Raji cells (Raji cells; healthy donor NK cells) | pEC50 (B cell receptor) | CD8+ T cell function as % cytotoxicity (CD8+ T cells [2]) | CD8+ T cell function as IFN-γ levels (CD8+ T cells [2]) | Th17 and Treg development (CD4+ T cells) | CD8+ T cell viability (CD8+ T cells [3]) | maximum tolerated dose (MTD) (CLL, MCL, NHL patients) | GPVI platelet aggregation ([4]; FIG. 22 and FIG. 23) | pIC50 ([4]; Homo sapiens, Platelet, FIG. 22) |
| --- | --- | --- | --- | --- | --- | --- | --- | --- | --- | --- | --- | --- | --- | --- | --- | --- | --- | --- |
| obinutuzumab: humanized monoclonal antibody directed against CD20, type II glycoengineered | 62% | 15% | 100% | 60% | 25% | 95% |  |  |  |  |  |  |  |  |  |  |  |  |
| C=CC(=O)N1CCC[C@@H](n2nc(-c3ccc(Oc4ccccc4)cc3)c3c(N)ncnc32)C1 [ibrutinib, 1-[(3R)-3-[4-amino-3-(4-phenoxyphenyl)-1H-pyrazolo[3,4-d]pyrimidin-1-yl]piperidin-1-yl]prop-2-en-1-one, reference compound] |  |  |  |  |  |  | ~50% | interfere with thrombus formation | completely inhibited ADCC | strongly inhibited the antibody-dependent lysis of target cells | 8.21 | affects CD8^+ T cell function | significant loss of function | a profound inhibition of Th17 cells and an increase in Treg development | strong, negative effect | No maximum tolerated dose (MTD) was apparent | significantly inhibits GPVI platelet aggregation | 6.89 |
| C=CC(=O)Nc1cccc(Nc2nc(Nc3ccc(OCCOC)cc3)ncc2F)c1 [CC-292, N-(3-((5-fluoro-2-((4-(2-methoxyethoxy)phenyl)amino)pyrimidin-4-yl)amino)phenyl)acrylamide] |  |  |  |  |  |  |  | interfere with thrombus formation |  |  | 6.92 |  |  |  |  |  |  |  |
